Laboratory results as given in US20130317056A1, “NEURONAL NICOTINIC AGONISTS AND METHODS OF CORRELATING COMT SNPS” (ABBVIE INC., priority 2012, published 2013).

Tests used:
Assay type in all cases: in vivo, human
[1] = tested on: clinically stable subjects with schizophrenia; assay: MATRICS Consensus Cognitive Battery (MCCB), Phase 2a Clinical Study A, ITT; details: 25 mg QD, Change to Week 12
From the text: A Phase 2a proof-of-concept (POC) study in clinically stable subjects with schizophrenia who were clinically stable and received stable doses of atypical antipsychotic therapy. The study was a Phase 2, multi-center, randomized, double-blind, placebo-controlled, parallel group study designed to evaluate the safety and efficacy of doses of (4s)-4-(5-phenyl-1,3,4-thiadiazol-2-yloxy)-1-azatricyclo[3.3.1.1^3,7]decane (Compound A) in clinically stable male and female subjects (ages 20 to 55, inclusive) with a Diagnostic and Statistical Manual of Mental Disorders—Fourth Edition, Text Revision (DSM-IV-TR) diagnosis of schizophrenia. […] The criteria for clinical stability was determined by a combination of retrospective data (over the 4 months prior to the start of Screening, which will be supported by clinical records, patient, identified responsible contact person, and physician interviews), and prospective data assessed during the Prospective Stabilization Period of 28 to 42 days duration. […]
The primary endpoint was the MCCB composite score, and the primary endpoint analysis was the change on the MCCB composite score from baseline to endpoint versus placebo. Other secondary measures included the MCCB domains, the NSA-16, the CANTAB cognition battery (measured at different time points from the MCCB), and the UPSA-2. […]

[2] = tested on: subjects with schizophrenia who were current smokers; assay: MCCB composite score in current smokers by COMT allele type, Clinical Study A; details: for MCCB Change from Baseline to Final Mean(SD) / MCCB Between-group Difference (Pooled SD) / MCCB Effect Size (Raw mean): current smokers
Method: Analysis of the data by cigarette smoking status (current smoker or current nonsmoker) indicated a significant […] interaction (p=0.015).
A blood sample for genotyping was collected from each subject who consented. Genomic DNA was isolated from whole blood using the FlexiGene DNA AGF3000 kit (Qiagen, Valencia, Calif.), on an AutogenFlex 3000 (AutoGen, Holliston, Mass.). Genotypes were determined using the Pyrosequencing detection method (USA—Qiagen, Inc., Valencia, Calif.). Individuals performing the genotyping were blinded to clinical trial data. The significance of the minor allele against the major allele is shown in column marked “Treatment genotype p-value” (Tables 6 and 7).
The SNPs analyzed were RS6269, RS4633, RS4680, and RS4818. The treatment effects across all 4 SNPs in the minor allele indicated a dose-response relationship. The magnitude of the effect for the Compound A 25 mg treatment group was as low as +1.8 points on the MCCB composite score for SNP4680 (corresponding to a Coen's d effect size of 0.43) to as high as +3.7 points for SNP RS4818 (corresponding to a Coen's d effect size of 0.93). […] In fact, the treatment response for both Compound A active treatment groups was generally less than that of placebo for subjects containing the major COMT allele.

[3] = tested on: clinically stable subjects with schizophrenia; assay: CANTAB cognition battery, Clinical Study A; details: 10 mg and 25 mg dose groups
From the text: The primary endpoint was the MCCB composite score, and the primary endpoint analysis was the change on the MCCB composite score from baseline to endpoint versus placebo. Other secondary measures included the MCCB domains, the NSA-16, the CANTAB cognition battery (measured at different time points from the MCCB), and the UPSA-2. The Positive and Negative Syndrome Scale (PANSS) was included to document stability in schizophrenia symptomatology.
The Cambridge Neuropsychological Test Automated Battery (CANTAB) is a computer-based cognitive assessment system consisting of a battery of neuropsychological tests, administered to subjects using a touch screen computer. […] The CANTAB computerized system will be employed to explore the effects of Compound A on cognition. The tests assess the following cognitive domains: executive function, spatial memory, attention and episodic memory. The CANTAB battery took approximately 40 minutes to administer and was given on Days 14, 28, 56, 84 and 98.

[4] = RS4633 T/T or C/T (minor allele), 25 mg vs placebo
[5] = RS4818 G/C or G/G (minor allele), 10 mg vs placebo
[6] = RS6269 G/G or A/G (minor allele), 10 mg vs placebo
[7] = RS6269 G/G or A/G (minor allele), 25 mg vs placebo

For `c1ccc(-c2nnc(O[C@@H]3C4CC5C[C@H]3C[N@](C5)C4)s2)cc1` [Compound A, (4s)-4-(5-phenyl-1,3,4-thiadiazol-2-yloxy)-1-azatricyclo[3.3.1.1^3,7]decane], which “MCCB Verbal Learning, Observed Mean (SD) change from baseline” value [1] is on record?
Its value is 2.24 (8.03) T-score.

What about the “treatment effect on MCCB composite score” value ([2]; current smokers who contained the major allele for the 4 COMT SNPs) of the same molecule?
Its value is “No treatment effect”.

And the “MCCB Change from Baseline to Final Mean(SD)” value ([2]; RS4633 C/C (major allele), 25 mg)?
The value was 0.4(3.9).

What about the “MCCB Between-group Difference (Pooled SD)” value ([2]; RS4633 C/C (major allele), 25 mg vs placebo) of the same molecule?
Its value is −1.1(5.0).

And the “MCCB Change from Baseline to Final Mean(SD)” value ([2]; RS4633 T/T or C/T (minor allele), 10 mg)?
Its value is −0.3(4.4).

What about the “MCCB Between-group Difference (Pooled SD)” value ([2]; RS4633 T/T or C/T (minor allele), 10 mg vs placebo) of the same molecule?
The value was −1.2(4.2).

And the “MCCB Change from Baseline to Final Mean(SD)” value ([2]; RS4633 T/T or C/T (minor allele), 25 mg)?
Its value is 2.9(4.8).

And the “MCCB Between-group Difference (Pooled SD)” value [2, 4]?
The value was 2.0(4.5).

What about the “MCCB Effect Size (Raw mean)” value [2, 4] of the same molecule?
Its value is 0.44.

And the “MCCB Change from Baseline to Final Mean(SD)” value ([2]; RS4680 A/A or G/A (minor allele), 10 mg)?
The value was 0.1(4.6).

And the “MCCB Between-group Difference (Pooled SD)” value ([2]; RS4680 A/A or G/A (minor allele), 10 mg vs placebo)?
Its value is −1.0(4.1).

What about the “MCCB Change from Baseline to Final Mean(SD)” value ([2]; RS4680 A/A or G/A (minor allele), 25 mg) of the same molecule?
The value was 2.9(4.8).

What about the “MCCB Effect Size (Raw mean)” value ([2]; RS4680 A/A or G/A (minor allele), 25 mg vs placebo) of the same molecule?
Its value is 0.43.

And the “MCCB Change from Baseline to Final Mean(SD)” value ([2]; RS4680 G/G (major allele), 25 mg)?
The value was 0.4(3.9).

And the “MCCB Between-group Difference (Pooled SD)” value ([2]; RS4680 G/G (major allele), 25 mg vs placebo)?
The value was −0.9(5.3).

And the “MCCB Change from Baseline to Final Mean(SD)” value ([2]; RS4818 C/C (major allele), 25 mg)?
Its value is 1.2(4.6).

And the “MCCB Between-group Difference (Pooled SD)” value ([2]; RS4818 C/C (major allele), 25 mg vs placebo)?
The value was −1.0(4.9).

And the “MCCB Change from Baseline to Final Mean(SD)” value ([2]; RS4818 G/C or G/G (minor allele), 10 mg)?
Its value is 1.7(3.7).

What about the “MCCB Between-group Difference (Pooled SD)” value [2, 5] of the same molecule?
Its value is 2.1(3.6).

What about the “MCCB Effect Size (Raw mean)” value [2, 5] of the same molecule?
Its value is 0.58.

And the “MCCB Change from Baseline to Final Mean(SD)” value ([2]; RS4818 G/C or G/G (minor allele), 25 mg)?
Its value is 3.4(4.4).

What about the “MCCB Effect Size (Raw mean)” value ([2]; RS4818 G/C or G/G (minor allele), 25 mg vs placebo) of the same molecule?
The value was 0.93.

What about the “MCCB Change from Baseline to Final Mean(SD)” value ([2]; RS6269 A/A (major allele), 25 mg) of the same molecule?
The value was 0.8(4.6).

And the “MCCB Between-group Difference (Pooled SD)” value ([2]; RS6269 A/A (major allele), 25 mg vs placebo)?
The value was −1.0(3.9).

And the “MCCB Change from Baseline to Final Mean(SD)” value ([2]; RS6269 G/G or A/G (minor allele), 10 mg)?
Its value is 2.9(4.2).

And the “MCCB Between-group Difference (Pooled SD)” value [2, 6]?
The value was 1.8(5.0).

What about the “MCCB Effect Size (Raw mean)” value [2, 6] of the same molecule?
The value was 0.36.

And the “MCCB Change from Baseline to Final Mean(SD)” value ([2]; RS6269 G/G or A/G (minor allele), 25 mg)?
Its value is 3.1(4.4).

And the “MCCB Between-group Difference (Pooled SD)” value [2, 7]?
The value was 2.0(5.1).

What about the “MCCB Effect Size (Raw mean)” value [2, 7] of the same molecule?
The value was 0.40.

What about the “results on the CANTAB battery relative to MCCB results” value [3] of the same molecule?
The value was “consistent”.
